Experimental data from ChEMBL document CHEMBL5724914, “Linking interpersonal differences in gut microbiota composition and drug biotransformation activity” (2024).

Columns and labels:
[1] = human gut metagenome, 24 h, 2 µM
[2] = human gut metagenome, 24 h, 2 µM; remark: listed apart in the source
[3] = The drug is tested on WLS-010 corresponding to human gut metagenome with ENA study accession number: PRJEB37062 and ENA sample accession number: ERS12561743 for biotransformation under anaerobic condition. The drug concentrations were measured over 9 timepoints collected between 0 and 24 hours of incubation by liquid-chromatography-coupled mass spectrometry (LC–MS); conditions: 2 µM
[4] = human gut metagenome, 24 h, 2 µM; remark: listed apart in the source
[5] = The drug is tested on WLS-052 corresponding to human gut metagenome with ENA study accession number: PRJEB37062 and ENA sample accession number: ERS12561747 for biotransformation under anaerobic condition. The drug concentrations were measured over 9 timepoints collected between 0 and 24 hours of incubation by liquid-chromatography-coupled mass spectrometry (LC–MS); conditions: 2 µM
[6] = human gut metagenome, 24 h, 2 µM; remark: listed apart in the source
[7] = human gut metagenome, 24 h, 2 µM; remark: listed apart in the source
[8] = human gut metagenome, 24 h, 2 µM; remark: listed apart in the source
[9] = The drug is tested on Z-028 corresponding to mouse gut metagenome with ENA study accession number: PRJEB37062 and ENA sample accession number: ERS12561827 for biotransformation under anaerobic condition. The drug concentrations were measured over 9 timepoints collected between 0 and 24 hours of incubation by liquid-chromatography-coupled mass spectrometry (LC–MS); conditions: 2 µM
[10] = The drug is tested on WLS-069 corresponding to human gut metagenome with ENA study accession number: PRJEB37062 and ENA sample accession number: ERS12561748 for biotransformation under anaerobic condition. The drug concentrations were measured over 9 timepoints collected between 0 and 24 hours of incubation by liquid-chromatography-coupled mass spectrometry (LC–MS); conditions: 2 µM
[11] = The drug is tested on WLS-082 corresponding to human gut metagenome with ENA study accession number: PRJEB37062 and ENA sample accession number: ERS12561751 for biotransformation under anaerobic condition. The drug concentrations were measured over 9 timepoints collected between 0 and 24 hours of incubation by liquid-chromatography-coupled mass spectrometry (LC–MS); conditions: 2 µM
[12] = The drug is tested on Z-011 corresponding to mouse gut metagenome with ENA study accession number: PRJEB37062 and ENA sample accession number: ERS12561811 for biotransformation under anaerobic condition. The drug concentrations were measured over 9 timepoints collected between 0 and 24 hours of incubation by liquid-chromatography-coupled mass spectrometry (LC–MS); conditions: 2 µM
[13] = The drug is tested on Z-018 corresponding to pig gut metagenome with ENA study accession number: PRJEB37062 and ENA sample accession number: ERS12561817 for biotransformation under anaerobic condition. The drug concentrations were measured over 9 timepoints collected between 0 and 24 hours of incubation by liquid-chromatography-coupled mass spectrometry (LC–MS); conditions: 2 µM
[14] = The drug is tested on Z-029 corresponding to rat gut metagenome with ENA study accession number: PRJEB37062 and ENA sample accession number: ERS12561828 for biotransformation under anaerobic condition. The drug concentrations were measured over 9 timepoints collected between 0 and 24 hours of incubation by liquid-chromatography-coupled mass spectrometry (LC–MS); conditions: 2 µM
[15] = human gut metagenome, 24 h, 2 µM; remark: listed apart in the source
[16] = The drug is tested on Z-001 corresponding to mouse gut metagenome with ENA study accession number: PRJEB37062 and ENA sample accession number: ERS12561801 for biotransformation under anaerobic condition. The drug concentrations were measured over 9 timepoints collected between 0 and 24 hours of incubation by liquid-chromatography-coupled mass spectrometry (LC–MS); conditions: 2 µM
[17] = The drug is tested on Z-012 corresponding to metagenome with ENA study accession number: PRJEB37062 and ENA sample accession number: ERS12561812 for biotransformation under anaerobic condition. The drug concentrations were measured over 9 timepoints collected between 0 and 24 hours of incubation by liquid-chromatography-coupled mass spectrometry (LC–MS); conditions: 2 µM
[18] = The drug is tested on Z-020 corresponding to rabbit gut metagenome with ENA study accession number: PRJEB37062 and ENA sample accession number: ERS12561819 for biotransformation under anaerobic condition. The drug concentrations were measured over 9 timepoints collected between 0 and 24 hours of incubation by liquid-chromatography-coupled mass spectrometry (LC–MS); conditions: 2 µM
[19] = The drug is tested on WLS-220 corresponding to human gut metagenome with ENA study accession number: PRJEB37062 and ENA sample accession number: ERS12561769 for biotransformation under anaerobic condition. The drug concentrations were measured over 9 timepoints collected between 0 and 24 hours of incubation by liquid-chromatography-coupled mass spectrometry (LC–MS); conditions: 2 µM
[20] = The drug is tested on Z-024 corresponding to pig gut metagenome with ENA study accession number: PRJEB37062 and ENA sample accession number: ERS12561823 for biotransformation under anaerobic condition. The drug concentrations were measured over 9 timepoints collected between 0 and 24 hours of incubation by liquid-chromatography-coupled mass spectrometry (LC–MS); conditions: 2 µM
Also: call rule not given here.

Structure (SMILES) | Bacterial Biotransformation [1] | Bacterial Biotransformation [2] | Bacterial Biotransformation [3] | Bacterial Biotransformation [4] | Bacterial Biotransformation [5] | Bacterial Biotransformation [6] | Bacterial Biotransformation [7] | Bacterial Biotransformation [8] | Bacterial Biotransformation [9] | Bacterial Biotransformation [10] | Bacterial Biotransformation [11] | Bacterial Biotransformation [12] | Bacterial Biotransformation [13] | Bacterial Biotransformation [14] | Bacterial Biotransformation [15] | Bacterial Biotransformation [16] | Bacterial Biotransformation [17] | Bacterial Biotransformation [18] | Bacterial Biotransformation [19] | Bacterial Biotransformation [20]
OCCOCCN1CCN(C2=Nc3ccccc3Sc3ccccc32)CC1 [QUETIAPINE] | Compound metabolized | Compound metabolized | Compound NOT metabolized | Compound metabolized | Compound NOT metabolized | Compound NOT metabolized | Compound NOT metabolized | Compound metabolized | Compound NOT metabolized | Compound NOT metabolized | Compound NOT metabolized | Compound NOT metabolized | Compound metabolized | Compound NOT metabolized | Compound metabolized | Compound NOT metabolized | Compound NOT metabolized | Compound NOT metabolized | Compound metabolized | Compound metabolized
CCC(=O)NCC[C@@H]1CCc2ccc3c(c21)CCO3 [RAMELTEON] | Compound NOT metabolized | Compound metabolized | Compound metabolized | Compound NOT metabolized | Compound metabolized | Compound metabolized | Compound metabolized | Compound metabolized | Compound NOT metabolized | Compound metabolized | Compound metabolized | Compound NOT metabolized | Compound metabolized | Compound NOT metabolized | Compound metabolized | Compound NOT metabolized | Compound metabolized | Compound metabolized | Compound metabolized | Compound metabolized
CNC(=C[N+](=O)[O-])NCCSCc1ccc(CN(C)C)o1 [RANITIDINE] | Compound metabolized | Compound NOT metabolized | Compound NOT metabolized | Compound metabolized | Compound NOT metabolized | Compound NOT metabolized | Compound metabolized | Compound metabolized | Compound metabolized | Compound metabolized | Compound metabolized | Compound metabolized | Compound metabolized | Compound metabolized | Compound metabolized | Compound metabolized | Compound metabolized | Compound metabolized | Compound NOT metabolized | Compound NOT metabolized
Nc1nc2ccc(OC(F)(F)F)cc2s1 [RILUZOLE] | Compound metabolized | Compound metabolized | Compound metabolized | Compound metabolized | Compound metabolized | Compound NOT metabolized | Compound metabolized | Compound metabolized | Compound NOT metabolized | Compound metabolized | Compound metabolized | Compound metabolized | Compound metabolized | Compound metabolized | Compound metabolized | Compound metabolized | Compound metabolized | Compound metabolized | Compound metabolized | Compound metabolized
CC(C)c1nc(CN(C)C(=O)N[C@H](C(=O)N[C@@H](Cc2ccccc2)C[C@H](O)[C@H](Cc2ccccc2)NC(=O)OCc2cncs2)C(C)C)cs1 [RITONAVIR] | Compound metabolized | Compound metabolized | Compound metabolized | Compound metabolized | Compound metabolized | Compound NOT metabolized | Compound metabolized | Compound metabolized | Compound metabolized | Compound metabolized | Compound metabolized | Compound metabolized | Compound metabolized | Compound NOT metabolized | Compound metabolized | Compound NOT metabolized | Compound metabolized | Compound metabolized | Compound metabolized | Compound NOT metabolized
